Source: PMC12040169 (PLOS Biology, 2025)

Assay: in vitro
Conditions: human, hela cells, % viability

First: Cc1ccc(NC(=O)CN2C(=O)c3ccccc3C2=O)c(C(=O)O)c1 [CBK262837]
Second: Cc1ccc(Oc2ccc3c(c2)C(=O)N(CC(=O)O)C3=O)cc1 [CBK287126]
The viability at 28.5 h, 10 µM of the first is lower: 87.5% for the first, 91.4% for the second.

Going from `CCOc1cccc(CNc2ccc(N3CCOCC3)c(C(=O)O)c2)c1` [CBK269973] to `O=C(NCCN1CCOCC1)c1cc(-c2ccc(Cl)cc2)nc2ccccc12` [CBK262650], the viability at 28.5 h, 10 µM rises from 92.9% to 96.6%.

First: Cc1cccc2c3c([nH]c12)CCN(C(=O)C(C)N1CCOCC1)C3 (centres unmarked) [CBK281600]
Second: CCC1CCCCN1C(=O)c1ccc(C)c(Cl)c1 (centres unmarked) [CBK082756]
The viability at 28.5 h, 10 µM of the first is lower: 89.2% for the first, 91.7% for the second.

Compared with `CCNC(=O)Nc1ccc([C@@H](O)[C@H]2COCC(=O)N2CC)cc1` [CBK289696], `CCCNC(=O)C(C)NC(=O)C1=Cc2ccccc2OC1` (centres unmarked) [CBK297937] is higher in viability at 28.5 h, 10 µM: 93.5% for the first, 95.2% for the second.

Compared with `COc1ccccc1Cn1nc2nnc(-c3ccccc3)c(-c3ccccc3)n2c1=O` [CBK286185], `Brc1ccc(-n2cc(-c3ccccc3)c3c(NCc4ccccn4)ncnc32)cc1` [CBK266427] is higher in viability at 28.5 h, 10 µM: 88.6% for the first, 104% for the second.

Compared with `COc1cncc(-c2cnc3[nH]c(=O)n(C4CCCCC4)c3n2)c1` [CBK064230], `CCc1nn(CC(=O)NC2CCCC2)c(=O)c2cc3sccc3n12` [CBK284077] is lower in viability at 28.5 h, 10 µM: 97.8% for the first, 84% for the second.

Going from `CN1CCN(c2cc(CNC(=O)c3ccnc(Cl)c3)ccn2)CC1` [CBK298275] to `Cc1cc2cc(C(=O)NCC3(N(C)C)CCN(C)CC3)ccc2o1` [CBK282623], the viability at 28.5 h, 10 µM falls from 92.4% to 90.2%.

Compared with `Cc1ccc2nsnc2c1NC(=O)COc1ccccc1F` [CBK269420], `COc1ccc(C(=O)Nc2cc(C)nn2-c2nc3ccccc3s2)cc1` [CBK287841] is lower in viability at 28.5 h, 10 µM: 105% for the first, 89.8% for the second.

Compared with `O=C1CN(C(=O)NC(c2ccccc2)c2ccccc2)CCN1` [CBK155853], `O=C(NC(c1ccccc1)c1ccccc1)N1CCN(CCc2ccccc2)CC1` [CBK158905] is higher in viability at 28.5 h, 10 µM: 93.6% for the first, 101% for the second.

Going from `COc1cccc(NC(=O)CCN2C(=O)c3ccccc3S2(=O)=O)c1` [CBK266003] to `COc1cc2c(cc1NC(=O)C(C)Oc1ccccc1)oc1ccccc12` (centres unmarked) [CBK264061], the viability at 28.5 h, 10 µM falls from 92.3% to 91.3%.

First: Cc1[nH]c(=S)[nH]c(=O)c1Cc1cccc2ccccc12 [CBK115563]
Second: CC(C)[C@H](CO)Nc1nc(-c2cccc3ccccc23)cnc1N [CBK063701]
The viability at 28.5 h, 10 µM of the first is lower: 82.4% for the first, 101% for the second.

Going from `O=C(O)CCCCc1nn(-c2ccc(Cl)c(Cl)c2)c2c1CCC2` [CBK012529] to `Cc1cc(C(=O)NCCCC2CCOC2)c2cccc(Cl)c2n1` (centres unmarked) [CBK282550], the viability at 28.5 h, 10 µM falls from 97.5% to 91.7%.

Going from `CC(C)(C)c1cc(C(=O)N/N=C/c2ccc(O)c([N+](=O)[O-])c2)[nH]n1` [CBK263844] to `COC(=O)COc1ccc(NC(=O)c2ccc([N+](=O)[O-])c(C)c2)cc1` [CBK268338], the viability at 28.5 h, 10 µM rises from 98.4% to 103%.

Compared with `CC(O)c1cccc(NC(=O)CCC(=O)O)c1` (centres unmarked) [CBK264691], `CCCC(=O)Nc1ccc(C(=O)O)cc1NC(=O)CCC` [CBK286939] is lower in viability at 28.5 h, 10 µM: 94.1% for the first, 92.3% for the second.

Compared with `CCOc1ccccc1OCC(=O)NN` [CBK261782], `Cc1cc2c(=O)n(CC(=O)NCc3ccccn3)cnc2s1` [CBK071900] is lower in viability at 28.5 h, 10 µM: 93.2% for the first, 91.1% for the second.

Compared with `O=C(CC(CN1CCN(CC(=O)N2CCCC2)CC1)C(=O)O)Nc1ccccc1` (centres unmarked) [CBK286844], `O=C(N/C(=C/c1ccccc1)C(=O)N1CCCCC1)c1ccccc1` [CBK261280] is higher in viability at 28.5 h, 10 µM: 87.9% for the first, 94.7% for the second.

First: CC(C)Cn1cncc1CNC(=O)Nc1ccc2c(cnn2C)c1 [CBK307405]
Second: Cc1cc(C)n(C(C)Cn2cncc2-c2cn(C)nc2C)n1 (centres unmarked) [CBK281792]
The viability at 28.5 h, 10 µM of the first is lower: 93.8% for the first, 102% for the second.

Going from `Cc1onc(-c2ccccc2)c1C(=O)NCCCn1ccnc1` [CBK262870] to `O=C1c2ccccc2C(=O)N1CCCc1nn2c(-c3cccnc3)nnc2s1` [CBK270140], the viability at 28.5 h, 10 µM falls from 96.2% to 80.2%.

First: C=C(C)Cn1c(Cc2c[nH]c3ccccc23)nnc1SCC(C)C [CBK200087T]
Second: CC(C)OC(=O)CN1C(=O)N2CCCN=C2c2ccccc21 [CBK284394]
The viability at 28.5 h, 10 µM of the first is higher: 98.6% for the first, 89.4% for the second.

Going from `CCn1nc(C)c(-c2cncn2CC(C)N2CCC(C)CC2)c1C` (centres unmarked) [CBK281593] to `Cc1nn(C)cc1-c1cncn1C(C)Cc1c(C)nn(C)c1C` (centres unmarked) [CBK281786], the viability at 28.5 h, 10 µM rises from 103% to 115%.

Going from `COc1nccnc1-c1ccc(SC)cc1` [CBK106795] to `c1ccc2c(c1)OCC(COc1nccnc1OC1CCNCC1)O2` (centres unmarked) [CBK070766T], the viability at 28.5 h, 10 µM rises from 95% to 102%.

Compared with `CC[C@H]1CN(C(=O)N2CCOCC2)CC[C@H]1CC(=O)NCCOC` [CBK289134], `CCCC(=O)N1CCC(c2nc(C3CCCC3)no2)C1` (centres unmarked) [CBK285457] is higher in viability at 28.5 h, 10 µM: 100% for the first, 106% for the second.

First: Cc1noc(CN2CCN(CCc3ccc4c(c3)CCO4)CC2)n1 [CBK305208]
Second: Cc1ccc(N2CC(c3nnc(N)o3)CC2=O)cc1 (centres unmarked) [CBK288061]
The viability at 28.5 h, 10 µM of the first is higher: 102% for the first, 93.8% for the second.

First: Cc1[nH]c(=O)[nH]c(=O)c1N(CCO)CCO [CBK262052]
Second: COc1cccc(/C=C2/NC(=O)N(c3cccc(Cl)c3)C2=O)c1OCc1cccc(C(=O)O)c1 [CBK265626]
The viability at 28.5 h, 10 µM of the first is lower: 94.8% for the first, 109% for the second.

Going from `COc1ccc(CN(C)c2c(C)nc3c(OCCc4cccc(OC)c4)cccn23)cc1` [CBK147467] to `COc1ccc(CNC(=O)C2CC(=O)N(c3ccc(O)cc3)C2)cc1` (centres unmarked) [CBK270125], the viability at 28.5 h, 10 µM falls from 109% to 96.8%.

First: CC(C)c1ccc(NS(=O)(=O)c2ccc(F)c(C(=O)O)c2)cc1 [CBK297940]
Second: CC(=O)Nc1ccc(S(=O)(=O)Nc2cccc(-c3cn4cccnc4n3)c2)cc1 [CBK269125]
The viability at 28.5 h, 10 µM of the first is higher: 104% for the first, 74.9% for the second.

Compared with `Cc1c(S(=O)(=O)N2CCC(N)C2)sc2ccc(Cl)cc12` (centres unmarked) [CBK164970], `COc1ccc(CNC(=O)c2cc(S(=O)(=O)N3CCCC3)cs2)cc1` [CBK307576] is higher in viability at 28.5 h, 10 µM: 89.3% for the first, 93.6% for the second.

Going from `O=C1NC2CCCCC2NC1CC(=O)N1CCN(C(c2ccccc2)c2ccccc2)CC1` (centres unmarked) [CBK269201] to `CC(Oc1ccccc1)C(=O)N1CCN(C/C=C/c2ccccc2)CC1` (centres unmarked) [CBK269050], the viability at 28.5 h, 10 µM rises from 88.7% to 98%.

Compared with `O=c1[nH]ccn1CCNc1ccc(-c2cccc(Cl)c2Cl)cn1` [CBK037745], `O=C(Nc1cccnc1)C1c2ccccc2Oc2ccccc21` [CBK263129] is higher in viability at 28.5 h, 10 µM: 93.1% for the first, 98.6% for the second.

First: CC(C)(C)NS(=O)(=O)c1cccc2nonc12 [CBK265569]
Second: CC(=C\C(=O)O)/C(=C/c1ccc2ccccc2n1)C(=O)O [CBK278294N]
The viability at 28.5 h, 10 µM of the first is higher: 115% for the first, 87.7% for the second.

`CCNC(=O)C1=C(C(=O)NCC)N2C(=NC(C)(C)c3ccccc32)S1` [CBK010172] and `O=C(O)/C=C\C(=O)Nc1ccc(Oc2ccccc2)cc1` [CBK261216] are the same in viability at 28.5 h, 10 µM: 102% for the first, 102% for the second.

Compared with `COC(=O)c1cn([C@H]2CO[C@H]3[C@@H]2OC[C@@H]3NC(=O)NC2CCCCC2)nn1` [CBK289499], `Nc1ccc(-c2cnc(NCc3ccc4c(c3)OCO4)c(C(=O)Nc3ccc4c(c3)OCCO4)c2)cc1` [CBK138480T] is higher in viability at 28.5 h, 10 µM: 82.4% for the first, 106% for the second.

For `Nc1nc(-c2ccccc2I)n[nH]1` [CBK027413], the viability at 28.5 h, 10 µM was 93.4%.
